Assay results published in patent US20250333745A1, “METHODS AND COMPOSITIONS FOR TREATMENT OF POLYCYSTIC KIDNEY DISEASE” (Regulus Therapeutics Inc., priority 2016, published 2025).

Columns and labels:
miR-17 family = assay: In vitro assays of tool compound against miR-17 family
Protocol: Previous studies using a research tool anti-miR-17 compound identified a role for miR-17 in PKD in two different models of PKD, the Pkd2-KO model (also known as the Pkhd1/cre; Pkd2^F/F model) and the Pcy model. The research tool modified oligonucleotide complementary to miR-17 was tested in mouse models of PKD. The anti-miR-17 compound was a fully phosphorothioated oligonucleotide 19 linked nucleosides in length (5′-CTGCACTGTAAGCACTTTG-3′; SEQ ID NO: 7), with DNA, 2′-MOE and S-cEt sugar moieties.

miR-106b = miR-106b luciferase reporter assay in HeLa cells; type: cell-based; conditions: anti-miR-17 at 100 nm
Protocol: Additional in vitro assays were conducted to further explore the potency of RG4326. A luciferase reporter assay was used to test the ability of RG4326 to inhibit the miR-17 family members miR-17, miR-20a, miR-93, and miR-106b. A luciferase reporter plasmid for each of miR-20a, miR-93, and miR-106b was constructed, with a fully complementary microRNA binding site in the 3′-UTR of the luciferase gene. HeLa cells were transfected with the microRNA mimic and its cognate luciferase reporter, followed by transfection with anti-miR-17 at a dose of 100 nm. […] As RG4326 is 100% complementary to the other miR-17 family members not tested, miR-20b and […], it is expected to inhibit these microRNAs as well.

miR-17 targets = assay: miR-17 PD Signature Score in IMCD3 cells (18 genes targeted by miR-17); type: cell-based, mouse; conditions: 24-hour transfection, relative to mock-transfection
Protocol: To test the ability of RG4326 to inhibit miR-17 regulation of endogenous targets, miR-17 target gene de-repression was assessed in vitro in several kidney cell types from normal and PKD mouse kidneys. Mouse kidney collecting duct cells (IMCD3) were treated with 0.3 nM, 1.2 nM, 4.7 nM, 18.8 nM, 75 nM, and 300 nM of RG4326 or a control oligonucleotide, RG5124. Additional control groups included untreated cells and mock-transfected cells (cell treated with transfection reagent only). After a 24-hour transfection period, cells were collected and RNA was extracted. The mRNA levels of 18 genes targeted by miR-17 were measured, and averaged to provide a pharmacodynamic signature score (PD Signature Score), represented as Log2 fold-change (Log2FC) relative to mock-transfection.

IFIT3 expression = assay: Ex vivo liver slice assay; type: cell-based; conditions: rat liver slice; 24-hour incubation; relative to PBS
Protocol: In in vitro assays, the potential for toxicity was assessed using a biochemical fluorescent binding assay (FBA) and a liver or kidney slice assay. The FBA is performed by incubating a fluorescent dye with each compound, and immediately measuring fluorescence. Highly fluorescent compounds have the potential to produce toxicity in vivo. The liver or kidney slice assay is performed by incubating a slice of tissue from a core liver sample isolated from rat. Following a 24-hour incubation, RNA is extracted from the tissue slice, and the expression levels of 18 pro-inflammatory genes are measured. An induction in pro-inflammatory gene expression indicates a potential for pro-inflammatory effects in vivo.
Ex vivo assays were performed with liver or kidney tissue slices. The liver or kidney slice assay is performed by incubating a slice of tissue from a core liver or kidney sample isolated from rat. Following a 24-hour incubation, RNA is extracted from the tissue slice, and the expression levels of 18 pro-inflammatory genes, including IFIT, are measured. A log 2 transformation of the fold change (Log2-FC) relative to PBS treatment was performed. An induction in pro-inflammatory gene expression indicates a potential for pro-inflammatory effects in vivo.

[1] = In vitro metabolic stability in human liver lysate; type: in vitro ADME; conditions: 24-hour incubation of RG4326
Protocol: (§1) Due to their reduced capacity for serum protein binding, which is a property that drives oligonucleotide distribution in the body, short oligonucleotides are not necessarily expected to have pharmacokinetic properties that make them suitable for use as drugs. RG4326 was incubated in mouse, monkey or human liver homogenate. The identity and concentration of RG4326 and metabolites was determined after a 24-hour incubation. RG4326 and metabolites were extracted using liquid-liquid extraction (LLE) and/or solid-phase extraction (SPE), which were then analyzed for identity and concentration using ion-pairing-reversed-phase high performance liquid chromatography coupled with time-of-flight mass spectrometry (IP—RP-HPLC-TOF).

[2] = Pharmacokinetic profile after three 10 mg/kg subcutaneous injections in C57BL6 and JCK mice; type: in vivo, mouse; conditions: three 10 mg/kg s.c.; for % Parent: after 21 days
Protocol: The pharmacokinetic behavior of RG4326 was further characterized in wild type (C57B16) mice and PKD (JCK) mice. Groups of 5 mice each received three 10 mg/kg subcutaneous injections on each of three consecutive days. At one, four, seven, 14 and 21 days after the third and final injection, mice were sacrificed and plasma, kidney and liver samples were collected. For measurement of RG4326, RG4326 was extracted using liquid-liquid extraction (LLE) and/or solid-phase extraction (SPE), which was then analyzed for identity and concentration using ion-pairing-reversed-phase high performance liquid chromatography coupled with time-of-flight mass spectrometry (IP—RP-HPLC-TOF).

Viscosity = type: physicochemical; conditions: approximately 150 mg/mL in water at 20° C.
Protocol: RG4326 has the following sequence and chemical modification pattern: ASGSCMAFCFUFUMUSGS where nucleosides followed by subscript “M” are 2′-O-methyl nucleosides, nucleosides followed by subscript “F” are 2′-fluoro nucleosides, nucleosides followed by subscript “S” are S-cEt nucleosides, each cytosine is a non-methylated cytosine and all linkages are phosphorothioate linkages. […] Additionally, the viscosity of RG4326 was determined to be 6 cP at a concentration of approximately 150 mg/mL (in water at 20° C.), thus RG4326 in solution is suitable for administration by subcutaneous injection.

[3] = In vitro metabolic stability in mouse liver lysate; type: in vitro ADME; conditions: 24-hour incubation of RG4326
Protocol: Metabolic stability was evaluated by incubating each anti-miR-17 compound in a mouse liver lysate. After 24 hours, the percentage of intact compound remaining is calculated. Compounds that are not stable following a 24-hour incubation are potentially not stable in vivo.
as §1

5′-CTGCACTGTAAGCACTTTG-3′ (all phosphorothioate, sugars by position and methylation of C not given here; DNA, 2'-MOE and S-cEt sugars) [Tool anti-miR-17, reference compound]
inhibition of miR-17 family members (in words) (miR-17 family): hybridizes to and inhibits all members of the miR-17 family

COC1C(OP(=O)(S)OC[C@H]2O[C@@H](n3cnc4c(N)ncnc43)C(F)C2OP(=O)(S)OC[C@H]2O[C@@H](n3ccc(N)nc3=O)C(F)C2OP(=O)(S)OC[C@H]2O[C@@H](n3ccc(=O)[nH]c3=O)C(F)C2OP(=O)(S)OC[C@H]2O[C@@H](n3ccc(=O)[nH]c3=O)C(OC)C2OP(=O)(S)OC[C@]23O[C@@H](n4ccc(=O)[nH]c4=O)C(O[C@H]2C)C3OP(=O)(S)OC[C@]23O[C@@H](n4cnc5c(=O)[nH]c(N)nc54)C(O[C@H]2C)C3O)[C@@H](COP(=O)(S)OC2C3O[C@@H](C)[C@]2(COP(=O)(S)OC2C4O[C@@H](C)[C@]2(CO)O[C@H]4n2cnc4c(N)ncnc42)O[C@H]3n2cnc3c(=O)[nH]c(N)nc32)O[C@H]1n1ccc(N)nc1=O (stereo in doubt) [RG4326, ASGSCMAFCFUFUMUSGS]
Mean luciferase fold derepression, miR-106b (miR-106b): 17.7 | miR-17 PD Signature Score, Mean Log2FC (miR-17 targets; 0.3 nM): −0.075 Log2FC | miR-17 PD Signature Score, Mean Log2FC (miR-17 targets; 1.2 nM): −0.067 Log2FC | miR-17 PD Signature Score, Mean Log2FC (miR-17 targets; 4.7 nM): 0.027 Log2FC | miR-17 PD Signature Score, Mean Log2FC (miR-17 targets; 18.8 nM): 0.272 Log2FC | miR-17 PD Signature Score, Mean Log2FC (miR-17 targets; 75 nM): 0.369 Log2FC | miR-17 PD Signature Score, Mean Log2FC (miR-17 targets; 300 nM): 0.373 Log2FC | Ex Vivo Liver Slices Assay IFIT3 expression (Log2-FC) (IFIT3 expression): 1.11 ± 0.32 Log2-FC | Ex Vivo Liver Lysate (% Analyte), Human [1]: 98.7% | AUC0-21 days ([2]; Normal C57BL6 mice, Kidney): 282 µg·days/g | C24 h ([2]; Normal C57BL6 mice, Kidney): 61.4 µg/g | % Parent ([2]; Normal C57BL6 mice, Kidney): >90% | AUC0-21 days ([2]; Normal C57BL6 mice, Liver): 17 µg·days/g | C24 h ([2]; Normal C57BL6 mice, Liver): 1.6 µg/g | % Parent ([2]; Normal C57BL6 mice, Liver): >90% | K/L Ratio (AUC) ([2]; Normal C57BL6 mice): 17 | K/L Ratio (C24 h) ([2]; Normal C57BL6 mice): 38 | AUC0-21 days ([2]; PKD JCK mice, Kidney): 497 µg·days/g | C24 h ([2]; PKD JCK mice, Kidney): 66.5 µg/g | % Parent ([2]; PKD JCK mice, Kidney): >90% | AUC0-21 days ([2]; PKD JCK mice, Liver): 37 µg·days/g | C24 h ([2]; PKD JCK mice, Liver): 5.9 µg/g | % Parent ([2]; PKD JCK mice, Liver): >90% | K/L Ratio (AUC) ([2]; PKD JCK mice): 13 | K/L Ratio (C24 h) ([2]; PKD JCK mice): 11 | parent compound remaining after 21 days ([2]; both plasma and tissues, C57B16 and JCK mice): over 90% | viscosity (Viscosity): 6 cP | Ex Vivo Liver Lysate (% Analyte), Mouse [3]: 99.1%

ASCSAMAFUFGFCMASCS [RG5124, reference compound]
miR-17 PD Signature Score, Mean Log2FC (miR-17 targets; 0.3 nM): −0.083 Log2FC | miR-17 PD Signature Score, Mean Log2FC (miR-17 targets; 1.2 nM): −0.103 Log2FC | miR-17 PD Signature Score, Mean Log2FC (miR-17 targets; 4.7 nM): −0.097 Log2FC | miR-17 PD Signature Score, Mean Log2FC (miR-17 targets; 18.8 nM): −0.108 Log2FC | miR-17 PD Signature Score, Mean Log2FC (miR-17 targets; 75 nM): −0.124 Log2FC | miR-17 PD Signature Score, Mean Log2FC (miR-17 targets; 300 nM): −0.065 Log2FC
